Experimental data reported in article PMC12454493, “Insight on novel sulfamoylphenyl pyrazole derivatives as anticancer carbonic anhydrase inhibitors” (Molecular Diversity, 2024).

Key:
hCA IX = hCA IX (Homo sapiens, UniProt Q16790); test: CA inhibitory activity, spectrophotometric p-NPA assay; assay type: biochemical; conditions: p-NPA substrate, pH 7.5, 25 °C, triplicate; read-out: IC50 (µM) ± SD hCA IX
PC-3 = test: NCI-60 one-dose SRB screen (Prostate Cancer); assay type: cell-based; conditions: Homo sapiens, single dose 10 µM, 48 h, read-out: Growth inhibition percent (GI %)
DU-145 = test: NCI-60 one-dose SRB screen (Prostate Cancer); assay type: cell-based; conditions: Homo sapiens, single dose 10 µM, 48 h, read-out: Growth inhibition percent (GI %)
HT29 = test: NCI-60 one-dose SRB screen (Colon Cancer); assay type: cell-based; conditions: Homo sapiens, HT-29, single dose 10 µM, 48 h, read-out: Growth inhibition percent (GI %)
HCT-15 = test: NCI-60 one-dose SRB screen (Colon Cancer); assay type: cell-based; conditions: Homo sapiens, single dose 10 µM, 48 h, read-out: Growth inhibition percent (GI %)
SW-620 = test: NCI-60 one-dose SRB screen (Colon Cancer); assay type: cell-based; conditions: Homo sapiens, single dose 10 µM, 48 h, read-out: Growth inhibition percent (GI %)
HCC-2998 = test: NCI-60 one-dose SRB screen (Colon Cancer); assay type: cell-based; conditions: Homo sapiens, single dose 10 µM, 48 h, read-out: Growth inhibition percent (GI %)
COLO 205 = test: NCI-60 one-dose SRB screen (Colon Cancer); assay type: cell-based; conditions: Homo sapiens, single dose 10 µM, 48 h, read-out: Growth inhibition percent (GI %)
HCT-116 = test: NCI-60 one-dose SRB screen (Colon Cancer); assay type: cell-based; conditions: Homo sapiens, single dose 10 µM, 48 h, read-out: Growth inhibition percent (GI %)
KM12 = test: NCI-60 one-dose SRB screen (Colon Cancer); assay type: cell-based; conditions: Homo sapiens, single dose 10 µM, 48 h, read-out: Growth inhibition percent (GI %)
OVCAR-3 = test: NCI-60 one-dose SRB screen (Ovarian cancer); assay type: cell-based; conditions: Homo sapiens, single dose 10 µM, 48 h, read-out: Growth inhibition percent (GI %)
OVCAR-5 = test: NCI-60 one-dose SRB screen (Ovarian cancer); assay type: cell-based; conditions: Homo sapiens, single dose 10 µM, 48 h, read-out: Growth inhibition percent (GI %)
IGROV1 = test: NCI-60 one-dose SRB screen (Ovarian cancer); assay type: cell-based; conditions: Homo sapiens, IGROV-1, single dose 10 µM, 48 h, read-out: Growth inhibition percent (GI %)
SK-OV-3 = test: NCI-60 one-dose SRB screen (Ovarian cancer); assay type: cell-based; conditions: Homo sapiens, single dose 10 µM, 48 h, read-out: Growth inhibition percent (GI %)
OVCAR-4 = test: NCI-60 one-dose SRB screen (Ovarian cancer); assay type: cell-based; conditions: Homo sapiens, single dose 10 µM, 48 h, read-out: Growth inhibition percent (GI %)
OVCAR-8 = test: NCI-60 one-dose SRB screen (Ovarian cancer); assay type: cell-based; conditions: Homo sapiens, single dose 10 µM, 48 h, read-out: Growth inhibition percent (GI %)
NCI/ADR-RES = test: NCI-60 one-dose SRB screen (Ovarian cancer); assay type: cell-based; conditions: Homo sapiens, single dose 10 µM, 48 h, read-out: Growth inhibition percent (GI %)
HL-60(TB) = test: NCI-60 one-dose SRB screen (Leukemia); assay type: cell-based; conditions: Homo sapiens, single dose 10 µM, 48 h, read-out: Growth inhibition percent (GI %)
CCRF-CEM = test: NCI-60 one-dose SRB screen (Leukemia); assay type: cell-based; conditions: Homo sapiens, single dose 10 µM, 48 h, read-out: Growth inhibition percent (GI %)
MOLT-4 = test: NCI-60 one-dose SRB screen (Leukemia); assay type: cell-based; conditions: Homo sapiens, single dose 10 µM, 48 h, read-out: Growth inhibition percent (GI %)
RPMI-8226 = test: NCI-60 one-dose SRB screen (Leukemia); assay type: cell-based; conditions: Homo sapiens, single dose 10 µM, 48 h, read-out: Growth inhibition percent (GI %)
K-562 = test: NCI-60 one-dose SRB screen (Leukemia); assay type: cell-based; conditions: Homo sapiens, K562, single dose 10 µM, 48 h, read-out: Growth inhibition percent (GI %)
SR = test: NCI-60 one-dose SRB screen (Leukemia); assay type: cell-based; conditions: Homo sapiens, single dose 10 µM, 48 h, read-out: Growth inhibition percent (GI %)
HS 578T = test: NCI-60 one-dose SRB screen (Breast Cancer); assay type: cell-based; conditions: Homo sapiens, single dose 10 µM, 48 h, read-out: Growth inhibition percent (GI %)
T-47D = test: NCI-60 one-dose SRB screen (Breast Cancer); assay type: cell-based; conditions: Homo sapiens, T47D, single dose 10 µM, 48 h, read-out: Growth inhibition percent (GI %)
MDA-MB-231/ATCC = test: NCI-60 one-dose SRB screen (Breast Cancer); assay type: cell-based; conditions: Homo sapiens, single dose 10 µM, 48 h, read-out: Growth inhibition percent (GI %)
MCF-7 = test: NCI-60 one-dose SRB screen (Breast Cancer); assay type: cell-based; conditions: Homo sapiens, MCF7, single dose 10 µM, 48 h, read-out: Growth inhibition percent (GI %)
EKVX = test: NCI-60 one-dose SRB screen (Non-Small Cell Lung Cancer); assay type: cell-based; conditions: Homo sapiens, single dose 10 µM, 48 h, read-out: Growth inhibition percent (GI %)
NCI-H460 = test: as above; assay type: cell-based; conditions: Homo sapiens, single dose 10 µM, 48 h, read-out: Growth inhibition percent (GI %)
NCI-H522 = test: as above; assay type: cell-based; conditions: Homo sapiens, single dose 10 µM, 48 h, read-out: Growth inhibition percent (GI %)
NCI-H23 = test: as above; assay type: cell-based; conditions: Homo sapiens, single dose 10 µM, 48 h, read-out: Growth inhibition percent (GI %)
A549/ATCC = test: as above; assay type: cell-based; conditions: Homo sapiens, single dose 10 µM, 48 h, read-out: Growth inhibition percent (GI %)
HOP-62 = test: as above; assay type: cell-based; conditions: Homo sapiens, single dose 10 µM, 48 h, read-out: Growth inhibition percent (GI %)
NCI-H322M = test: as above; assay type: cell-based; conditions: Homo sapiens, single dose 10 µM, 48 h, read-out: Growth inhibition percent (GI %)
NCI-H226 = test: as above; assay type: cell-based; conditions: Homo sapiens, single dose 10 µM, 48 h, read-out: Growth inhibition percent (GI %)
HOP-92 = test: as above; assay type: cell-based; conditions: Homo sapiens, single dose 10 µM, 48 h, read-out: Growth inhibition percent (GI %)
UACC-62 = test: NCI-60 one-dose SRB screen (Melanoma); assay type: cell-based; conditions: Homo sapiens, single dose 10 µM, 48 h, read-out: Growth inhibition percent (GI %)
MALME-3M = test: NCI-60 one-dose SRB screen (Melanoma); assay type: cell-based; conditions: Homo sapiens, single dose 10 µM, 48 h, read-out: Growth inhibition percent (GI %)
M14 = test: NCI-60 one-dose SRB screen (Melanoma); assay type: cell-based; conditions: Homo sapiens, single dose 10 µM, 48 h, read-out: Growth inhibition percent (GI %)
LOX IMVI = test: NCI-60 one-dose SRB screen (Melanoma); assay type: cell-based; conditions: Homo sapiens, single dose 10 µM, 48 h, read-out: Growth inhibition percent (GI %)
SK-MEL-5 = test: NCI-60 one-dose SRB screen (Melanoma); assay type: cell-based; conditions: Homo sapiens, single dose 10 µM, 48 h, read-out: Growth inhibition percent (GI %)
UACC-257 = test: NCI-60 one-dose SRB screen (Melanoma); assay type: cell-based; conditions: Homo sapiens, single dose 10 µM, 48 h, read-out: Growth inhibition percent (GI %)
SK-MEL-28 = test: NCI-60 one-dose SRB screen (Melanoma); assay type: cell-based; conditions: Homo sapiens, single dose 10 µM, 48 h, read-out: Growth inhibition percent (GI %)
SK-MEL-2 = test: NCI-60 one-dose SRB screen (Melanoma); assay type: cell-based; conditions: Homo sapiens, single dose 10 µM, 48 h, read-out: Growth inhibition percent (GI %)
MDA-MB-435 = test: NCI-60 one-dose SRB screen (Melanoma); assay type: cell-based; conditions: Homo sapiens, single dose 10 µM, 48 h, read-out: Growth inhibition percent (GI %)

With `CCOC(=O)c1ccc(NC(=O)COC(=O)c2cn(-c3ccc(S(N)(=O)=O)cc3)nc2-c2ccc(OC)cc2)cc1` [Compound 5c, 2-[(4-(Ethoxycarbonyl)phenyl)amino]-2-oxoethyl 3-(4-methoxyphenyl)-1-(4-sulfamoylphenyl)-1H-pyrazole-4-carboxylate] the IC50 (hCA IX) was 0.22 ± 0.01 µM, the inhibition at 10 µM (PC-3) was 50.9% and the inhibition at 10 µM (DU-145) was 14.7%. The inhibition at 10 µM (HT29) was 17.3%, the inhibition at 10 µM (HCT-15) was 48.5% and the inhibition at 10 µM (SW-620) was 7.9%. For the same molecule, the inhibition at 10 µM (HCC-2998) was < 5%, the inhibition at 10 µM (COLO 205) was 25.1% and the inhibition at 10 µM (HCT-116) was 35.2%. For the same molecule, the inhibition at 10 µM (KM12) was 26.2%, the inhibition at 10 µM (OVCAR-3) was 23.2% and the inhibition at 10 µM (OVCAR-5) was 13.7%. For the same molecule, the inhibition at 10 µM (IGROV1) was < 5%, the inhibition at 10 µM (SK-OV-3) was 11.6% and the inhibition at 10 µM (OVCAR-4) was 42.5%. For the same molecule, the inhibition at 10 µM (OVCAR-8) was 5.25%, the inhibition at 10 µM (NCI/ADR-RES) was < 5% and the inhibition at 10 µM (HL-60(TB)) was 48.4%. It also gave an inhibition at 10 µM (CCRF-CEM) of 62.6%, an inhibition at 10 µM (MOLT-4) of 65.9% and an inhibition at 10 µM (RPMI-8226) of 58.6%. The inhibition at 10 µM (K-562) was 61.7%, the inhibition at 10 µM (SR) was 64.6% and the inhibition at 10 µM (HS 578T) was 31.3%. For the same molecule, the inhibition at 10 µM (T-47D) was 46.2%, the inhibition at 10 µM (MDA-MB-231/ATCC) was 18.8% and the inhibition at 10 µM (MCF-7) was 48.8%. The melting point was 121 to 124 °C, the inhibition at 10 µM (EKVX) was 42.2% and the inhibition at 10 µM (NCI-H460) was 28.8%. It also gave an inhibition at 10 µM (NCI-H522) of 31%, an inhibition at 10 µM (NCI-H23) of 17.5% and an inhibition at 10 µM (A549/ATCC) of 39.4%. It also gave an inhibition at 10 µM (HOP-62) of 12%, an inhibition at 10 µM (NCI-H322M) of 9.97% and an inhibition at 10 µM (NCI-H226) of 26.7%. For the same molecule, the inhibition at 10 µM (HOP-92) was 26%, the inhibition at 10 µM (UACC-62) was 44.5% and the inhibition at 10 µM (MALME-3M) was 21%. It also gave an inhibition at 10 µM (M14) of 40.3%, an inhibition at 10 µM (LOX IMVI) of 21.3% and an inhibition at 10 µM (SK-MEL-5) of 34.9%. It also gave an inhibition at 10 µM (UACC-257) of 25.4%, an inhibition at 10 µM (SK-MEL-28) of 24.6% and an inhibition at 10 µM (SK-MEL-2) of 23.1%. For the same molecule, the inhibition at 10 µM (MDA-MB-435) was 27.3%.
